Data on one compound can be found in patent US10034836B2, “Formulations of guanylate cyclase C agonists and methods of use” (SYNERGY PHARMACEUTICALS, INC., priority 2008, dated 2018).

Where a SMILES comes first, the peptide text is derived from it. Bridges are numbered along the chain shown (N, C = ends).

Data set [1] deals with cynomolgus monkeys. As to the kind of experiment: Repeated oral dose toxicity study of SP-304 in cynomolgus monkeys (14 days). The class given is in vivo. Here is the method: The primary purpose of this experiment was to evaluate the toxicity and pharmacokinetics of a repeated oral dose of SP-304 in cynomolgus monkeys. […] Monkeys returned to normal stool consistency within 24-48 hours following the last dose of SP-304.

Data set [2] concerns cynomolgus monkeys. As to the kind of experiment: Repeated daily oral dose for 28 days in cynomolgus monkeys, stool consistency. Conditions: cynomolgus monkey, in vivo, 10 mg/kg. Here is the method: FIG. 19: Determination of SP-304 dose that produced diarrhea in monkeys. Two groups of monkeys, male and female, were treated with a single dose of SP-304 per day continuously for 28 days (for each group, 0 and 75 mg/kg, n=5; 1, 10 mg/kg, n=4). Stool consistency and bowel frequency were noted every day. Results are presented as cumulative score for 28 days. The scoring used for stool consistency was as follows: 0: No stool, 1: Normal stool, 2: Loose/mushy stool and 3: Diarrhea/watery stool.
Male (n=4) and female (n=4) monkeys were given a daily dose (1 or 10 or 75 mg/kg body weight) of SP-304 repeatedly for 28 days. Effect of treatment on stool consistency was recorded three times a day. […] Therefore, SP-304 was used at 10 mg/kg body weight in the subsequent experiments.

Data set [3] relates to healthy male and female subjects. Particulars: in vivo, po.
Data set [4] is described as follows: Stability in simulated intestinal fluid (SIF), biological activity by cGMP synthesis in T84 cells. The data set is classed as in vitro ADME. Here is the method: FIG. 2A: Biological activity of SP-304 incubated for varying lengths of time in simulated intestinal fluid (SIF). SP-304 samples were incubated for 0, 30, 60, 90, 150, and 300 min, respectively, and then tested for their ability to stimulate cGMP synthesis in T84 cells. The cGMP stimulation activity in the sample at 0 min of incubation time in SIF was taken as 100% biological activity. The activities of the other SP-304 incubation samples were calculated as the percentage of activity relative to that of the 0 min sample. Data points shown are the average of triplicate measurements±SD.
(§1) FIG. 7A: Biological activity of SP-333 incubated for varying lengths of time in simulated intestinal fluid (SIF). SP-333 samples incubated for 0, 5, 10, 30, 60, and 120 min, respectively, were tested for their ability to stimulate cGMP synthesis in T84 cells. The control sample marked as C120 was produced by incubating SP-333 with heat inactivated SIF for 120 min. Samples from the incubations were removed and heated at 95° C. for 5 min to inactivate digestive enzymes and then used to stimulate cyclic GMP synthesis in T84 cells. The cGMP stimulation activity in the sample at 0 min of incubation time in SIF was taken as 100% biological activity. The activities of the other SP-304 incubation samples were calculated as the percentage of activity relative to that of the 0 min sample. Data points shown are the average of triplicate measurements±SD.
as §1, with “FIG. 7B:” for “FIG. 7A:”, “of SP-332” for “of SP-333”, “incubating SP-332” for “incubating SP-333”
FIG. 7C: Biological activity of SP-304 incubated for varying lengths of time in simulated intestinal fluid (SIF). SP-304 samples incubated for 0, 10, and 60 min, respectively, were tested for their ability to stimulate cGMP synthesis in T84 cells. The control samples marked as C0 and C60 were produced by incubating SP-304 with heat inactivated SIF for 0 and 60 min, respectively. Samples from the incubations were removed and heated at 95° C. for 5 min to inactivate digestive enzymes and then used to stimulate cyclic GMP synthesis in T84 cells. The cGMP stimulation activity in the sample at 0 min of incubation time in SIF was taken as 100% biological activity. The activities of the other SP-304 incubation samples were calculated as the percentage of activity relative to that of the 0 min sample. […]
FIGS. 7G-1-7G-5: Incubation of SP-333 with SIF for 2, 6, 12 and 24 hrs. Effect of SIF digestion on the activity of SP-333 in T84 stimulation assay was determined (FIG. 7G-1) and samples were also analyzed by HPLC (FIGS. 7G2-5). […]
The stability of SP-304 was also evaluated after incubation with simulated intestinal fluid (SIF) by measuring its biological activity and by HPLC analyses (FIGS. 2A & 2B). […]

With `CC(C)C[C@H](NC(=O)[C@@H]1CSSC[C@@H]2NC(=O)[C@H](CC(C)C)NC(=O)[C@H](CCC(=O)O)NC(=O)[C@@H](NC(=O)[C@H](CCC(=O)O)NC(=O)[C@H](CC(=O)O)NC(=O)[C@@H](N)CC(N)=O)CSSC[C@H](NC(=O)[C@H](C)NC(=O)[C@H](C(C)C)NC(=O)[C@H](CC(N)=O)NC(=O)[C@H](C(C)C)NC2=O)C(=O)N[C@@H]([C@@H](C)O)C(=O)NCC(=O)N1)C(=O)O` [SP-304, Asn^1-Asp^2-Glu^3-Cys^4-Glu^5-Leu^6-Cys^7-Val^8-Asn^9-Val^10-Ala^11-Cys^12-Thr^13-Gly^14-Cys^15-Leu^16] (H-NDECELCVNVACTGCL-OH; disulfide 4-12, 7-15), the “time to return to normal stool consistency following the last dose” value in the data set on cynomolgus monkeys [1] (cynomolgus monkey, in vivo) lay within 24 to 48 h. Besides, the “tolerability of repeated oral dose” value with cynomolgus monkeys [1] (daily dose of 250 mg for 14 consecutive days, cynomolgus monkeys) is reported as “well tolerated”. Besides, the “effect on stool consistency in females” value in the data set on cynomolgus monkeys [2] is “severe diarrhea consistently”. Moreover, the “most prevalent adverse event: grade I diarrhea (CTCAE)” value in data set [3] worked out at 12.7%. Also, in data set [4], the “loss of potency following digestion with SIF” value is on record as “about 30%” and the “reduction in biological activity after incubation in SIF” value is reported as 30%. In addition, the “reduction of biological activity following incubation in SIF” value in data set [4] (pH 6) is reported as “about 30%”.
